Measurements reported in US20250230193A1, “CYCLIC COMPOUND HAVING SELECTIVE KRAS INHIBITORY EFFECT ON HRAS AND NRAS” (CHUGAI SEIYAKU KABUSHIKI KAISHA, priority 2022, published 2025).
Where a SMILES comes first, the peptide text is derived from it. Bridges are numbered along the chain shown (N, C = ends). [ ]: non-standard residue; d: D form. The star is where a group is joined. hPhe(3-Cl-4-CF3) = N[C@@H](CCc1ccc(C(F)(F)F)c(Cl)c1)C(=O)O; NPrPhe(4-CF3) = CCCN[C@@H](Cc1ccc(C(F)(F)F)cc1)C(=O)O; 3Oxa8azabicyclo(3.2.1)octane = C1CC2COCC1N2*; NEtPhe(4-Me) = CCN[C@@H](Cc1ccc(C)cc1)C(=O)O; Pro(4-spirocPr) = O=C(O)[C@@H]1CC2(CC2)CN1; NMeGly(cPent) = CN[C@H](C(=O)O)C1CCCC1; NMeD = CN[C@@H](CC(=O)O)C(=O)O; NMeL = CN[C@@H](CC(C)C)C(=O)O; Morpholide = C1CN(*)CCO1; Ac5c = NC1(C(=O)O)CCCC1; NEtG = CCNCC(=O)O; Sar = CNCC(=O)O

How the values were obtained:
[1] = target: GDP-bound NRAS wild-type protein (Homo sapiens, UniProt P01111); assay: Binding to NRAS by surface plasmon resonance (SPR), Single Cycle Kinetics
[2] = target: GDP-bound HRAS wild-type protein (Homo sapiens, UniProt P01112); assay: Binding to HRAS by surface plasmon resonance (SPR), Single Cycle Kinetics
[3] = SPR, GDP-bound wild-type proteins

GDP-bound NRAS wild-type protein, sequence (P01111 whole entry): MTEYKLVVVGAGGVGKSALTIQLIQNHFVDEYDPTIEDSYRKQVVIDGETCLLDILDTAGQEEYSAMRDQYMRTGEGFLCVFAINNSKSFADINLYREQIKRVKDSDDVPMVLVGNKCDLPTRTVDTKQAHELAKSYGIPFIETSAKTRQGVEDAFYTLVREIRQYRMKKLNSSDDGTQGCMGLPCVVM
GDP-bound HRAS wild-type protein, sequence (P01112 whole entry): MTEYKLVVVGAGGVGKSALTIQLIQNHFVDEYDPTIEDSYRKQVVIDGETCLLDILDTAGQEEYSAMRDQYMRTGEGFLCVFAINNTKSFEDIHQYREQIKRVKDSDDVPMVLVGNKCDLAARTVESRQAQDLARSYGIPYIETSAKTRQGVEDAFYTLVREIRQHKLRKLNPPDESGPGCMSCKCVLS

## CC[C@H](C)[C@@H]1NC(=O)[C@H](CC(C)C)N(C)C(=O)C[C@@H](C(=O)N2C3CCC2COC3)N(C)C(=O)[C@H](C2CCCC2)N(C)C(=O)C2(CCCC2)NC(=O)[C@@H]2CCCN2C(=O)[C@H](CCc2ccc(C(F)(F)F)c(Cl)c2)NC(=O)CN(C)C(=O)[C@H](Cc2ccc(C)cc2)N(CC)C(=O)CN(C)C(=O)CN(C)C1=O [PP0051] ([NMeL]I[Sar][Sar][NEtPhe(4-Me)][Sar][hPhe(3-Cl-4-CF3)]P[Ac5c][NMeGly(cPent)][NMeD]-{3Oxa8azabicyclo(3.2.1)octane}; lactam N-11)
[1]; SPR
  NRAS/KRAS (ratio of KD for GDP-bound NRAS wild-type to KD for KRAS): C (A compound having a KD ratio of 0.1 or more and less than 3 is denoted as C)
[2]; SPR
  HRAS/KRAS (ratio of KD for GDP-bound HRAS wild-type to KD for KRAS): C (A compound having a KD ratio of 0.1 or more and less than 3 is denoted as C)

## CCO[C@@H]1C[C@H]2C(=O)NC3(CCCC3)C(=O)N(C)[C@@H](C3CCCC3)C(=O)N(C)[C@H](C(=O)N(C)CC)CC(=O)N(C)[C@@H](CC(C)C)C(=O)N[C@@H]([C@@H](C)CC)C(=O)N(C)CC(=O)N(C)[C@H]3C/C=C\CCN(C3=O)[C@@H](Cc3ccc(C(F)(F)F)cc3)C(=O)N(C)CC(=O)N[C@@H](CCc3cc(F)c(C(F)(F)F)c(F)c3)C(=O)N2C1 [PP1574, (2S,8S,12R,14S,20S,23S,27S,30S,36S,38Z)-20-cyclopentyl-8-[2-[3,5-difluoro-4-(trifluoromethyl)phenyl]ethyl]-12-ethoxy-N-ethyl-27-isobutyl-N,4,19,22,26,32,35-heptamethyl-30-[(1S)-1-methylpropyl]-3,6,9,15,18,21,25,28,31,34,42-undecaoxo-2-[[4-(trifluoromethyl)phenyl]methyl]spiro[1,4,7,10,16,19,22,26,29,32,35-undecazatricyclo[34.5.1.0^10,14]dotetracont-38-ene-17,1′-cyclopentane]-23-carboxamide]
[1]; SPR, KD ratio class
  NRAS/KRAS (ratio of KD value for GDP-bound NRAS wild-type protein to KD value for KRAS): A (a compound having 10 or more and less than 20 is denoted as A)
[2]; SPR, KD ratio class
  HRAS/KRAS (ratio of KD value for GDP-bound HRAS wild-type protein to KD value for KRAS): A (a compound having 10 or more and less than 20 is denoted as A)

## CCC[C@H]1C(=O)N[C@@H]([C@@H](C)CC)C(=O)N(C2CC2)CC(=O)N(C)[C@H]2C/C=C\CCN(C2=O)[C@@H](Cc2ccc(C(F)(F)F)cc2)C(=O)N(C)CC(=O)N[C@@H](CCc2cc(F)c(C(F)(F)F)c(F)c2)C(=O)N2C[C@H](OCC)C[C@H]2C(=O)NC2(CC(C)(C)C2)C(=O)N(C)[C@@H](CC2CC2)C(=O)N(C)[C@H](C(=O)N(C)C)CC(=O)N1C [PP2813]
[1]; class symbols
  NRAS/KRAS (ratio of KD value with respect to GDP-bound NRAS wild-type protein to KD value with respect to KRAS): AA (a compound having 20 or more is denoted as AA)
[2]; class symbols
  HRAS/KRAS (ratio of KD value with respect to GDP-bound HRAS wild-type protein to KD value with respect to KRAS): A (a compound having 10 or more and less than 20 is denoted as A)

## CCO[C@@H]1C[C@H]2C(=O)NC3(CCC3)C(=O)N(C)[C@@H](C(CC)CC)C(=O)N3CCC[C@@H]3CC(=O)N(C)[C@@H](CC3CC3)C(=O)N[C@@H]([C@@H](C)CC)C(=O)N(C)CC(=O)N(C)[C@H]3C/C=C\CCN(C3=O)[C@@H](Cc3ccc(C(F)(F)F)cc3)C(=O)N(C)CC(=O)N[C@@H](CCc3cc(F)c(C(F)(F)F)c(F)c3)C(=O)N2C1 [PP1612]
[1]; KD ratio, GDP-bound NRAS wild-type vs GDP-bound KRAS wild-type, SPR
  NRAS/KRAS (ratio of KD value for NRAS to KD value for KRAS): B (a compound having 3 or more and less than 10 is denoted as B)
[2]; KD ratio, GDP-bound HRAS wild-type vs GDP-bound KRAS wild-type, SPR
  HRAS/KRAS (ratio of KD value for HRAS to KD value for KRAS): B (a compound having 3 or more and less than 10 is denoted as B)

## CCO[C@@H]1C[C@H]2C(=O)NC3(CC(C)(C)C3)C(=O)N(C)[C@@H](C(CC)CC)C(=O)N(C)[C@H](C(=O)N3CCCC3)CC(=O)N(C)[C@@H](C)C(=O)N[C@@H]([C@@H](C)CC)C(=O)N(C)CC(=O)N(C)[C@H]3C/C=C\CCN(C3=O)[C@@H](Cc3ccc(C)cc3)C(=O)N(C)CC(=O)N[C@@H](CCc3ccc(Cl)c(Cl)c3)C(=O)N2C1 [PP2187]
[1]; SPR, GDP-bound NRAS wild-type vs GDP-bound KRAS wild-type
  NRAS/KRAS (ratio of KD value with respect to NRAS to KD value with respect to KRAS): AA (a compound having 20 or more is denoted as AA)
[2]; SPR, GDP-bound HRAS wild-type vs GDP-bound KRAS wild-type
  HRAS/KRAS (ratio of KD value with respect to HRAS to KD value with respect to KRAS): A (a compound having 10 or more and less than 20 is denoted as A)

## CCCN1C(=O)CN(C)C(=O)CN(CC)C(=O)[C@H]([C@@H](C)CC)NC(=O)[C@H](CC(C)C)N(C)C(=O)C[C@@H](C(=O)N2CCOCC2)N(C)C(=O)[C@H](C2CCCC2)N(C)C(=O)C2(CCCC2)NC(=O)[C@@H]2CC3(CC3)CN2C(=O)[C@H](CCc2ccc(C(F)(F)F)c(Cl)c2)NC(=O)CN(C)C(=O)[C@@H]1Cc1ccc(C(F)(F)F)cc1 [PP0295] ([NMeL]I[NEtG][Sar][NPrPhe(4-CF3)][Sar][hPhe(3-Cl-4-CF3)][Pro(4-spirocPr)][Ac5c][NMeGly(cPent)][NMeD]-Morpholide; lactam N-11)
[1]; SPR
  NRAS/KRAS (ratio of KD for GDP-bound NRAS wild-type to KD for KRAS): B (a compound having 3 or more and less than 10 is denoted as B)
[2]; SPR
  HRAS/KRAS (ratio of KD for GDP-bound HRAS wild-type to KD for KRAS): C (A compound having a KD ratio of 0.1 or more and less than 3 is denoted as C)

## CCCO[C@@H]1C[C@H]2C(=O)NC3(CC(C)(C)C3)C(=O)N(C)[C@@H](C(CC)CC)C(=O)N(C)[C@H](C(=O)N(C)C)CC(=O)N(C)[C@H]3CCCc4ccc(cc4)C[C@@H](C(=O)N(C)CC(=O)N[C@@H](CCc4ccc(C(F)(F)F)c(OC)c4)C(=O)N2C1)N1CC/C=C\C[C@@H](C1=O)N(C)C(=O)CN(C)C(=O)[C@H]([C@@H](C)CC)NC3=O [PP3063]
[1]; [3]
  NRAS/KRAS (ratio of KD value with respect to GDP-bound NRAS wild-type protein to KD value with respect to KRAS): B (a compound having 3 or more and less than 10 is denoted as B)
[2]; [3]
  HRAS/KRAS (ratio of KD value with respect to GDP-bound HRAS wild-type protein to KD value with respect to KRAS): B (a compound having 3 or more and less than 10 is denoted as B)
